The record followed here is patent EP0528030B1, “ANTITUMOR BE-13793C DERIVATIVE” (BANYU PHARMACEUTICAL CO., LTD., priority 1990, dated 1991).

Molecules are shown by their SMILES. Converted amounts (≈) assume the structure as drawn. A value given as a limit tells only on which side of the number the result lay.

Holding throughout (assay type): cell-based
Assay [1] deals with human gastric cancer cell MKN45. Briefly: Cancer cell proliferation inhibition (sulforhodamine B staining), MKN45. As to conditions: MKN-45, 72 hours culture with test solution, DMEM medium containing 10% fetal bovine serum. How it is done: (§1) A test compound (20 mg) was dissolved in dimethyl sulfoxide (1 ml) and successively diluted into test solutions.
(§2) DMEM medium containing 10% fetal bovine serum was used for a human gastric cancer cell MKN45 and a human colon cancer cell LS180, and […] medium containing 10% fetal bovine serum was used for human lung cancer PC13.
(§3) 100 µl portions of the cell-culturing medium containing 3×10^3 cancer cells were put in a 96-hole microplate, culture was carried out under 5% CO2 at 37°C for 24 hours, 11 µl portions of the above test solution were added, the mixtures were subjected to culture under 5% CO2 at 37°C for further 72 hours, and then the cells were fixated with 50% trichloroacetic acid and stained with 0.4% sulforhodamine B. The dye was extracted from the stained cells with 10 mM Tris solution, and absorbance at 540 nm was measured and compared with that in the control group. […]

The next assay relates to human lung cancer PC13. Briefly: Cancer cell proliferation inhibition (sulforhodamine B staining), PC13. Conditions: PC-13, 72 hours culture with test solution, RPMI-160 medium containing 10% fetal bovine serum. How it is done:
as §1, §2, §3
In general terms: Sulforhodamine B stains cellular protein and so reports cell mass.

Assay [2] deals with human colon cancer cell LS180. The assay is described as follows: Cancer cell proliferation inhibition (sulforhodamine B staining), LS180. Conditions: 72 hours culture with test solution, DMEM medium containing 10% fetal bovine serum. The protocol: as §1, §2, §3

For the compound `O=C1NC(=O)c2c1c1c3cccc(O)c3[nH]c1c1[nH]c3c(O)cccc3c21` [BE-13793C, 12,13-dihydro-1,11-dihydroxy-5H-indolo[2,3-a]pyrrolo[3,4-c]-carbazole-5,7(6H)-dione], the IC50 in assay [1] is above 50 µg/mL; in the assay with human lung cancer PC13, 12.5 µg/mL (≈ 35 µM); in assay [2] it was above 50 µg/mL.

Regarding `O=C1NC(=O)c2c1c1c3cccc(O)c3[nH]c1c1c2c2cccc(O)c2n1[C@@H]1O[C@H](CO)[C@@H](O)[C@H](O)[C@H]1O` [Example 1, 12,13-dihydro-1,11-dihydroxy-13-(β-D-glucopyranosyl)-5H-indolo[2,3-a]pyrrolo[3,4-c]carbazole-5,7(6H)-dione], the values for the IC50 (in assay [1]; with human lung cancer PC13; in assay [2]) were 0.28 µg/mL (≈ 0.539 µM), 1.7 µg/mL (≈ 3.27 µM) and 1.65 µg/mL (≈ 3.18 µM), respectively.

What is called IC50 is the midpoint of a concentration-inhibition curve. Read a high IC50 as weaker potency.
